Source: patent publication US12583858B2 (Genentech, Inc., priority 2015, dated 2026)

Molecular target: T1, TDO2 (Homo sapiens, UniProt P48775)
T1 construct: decreased levels of NFK in SW48 cells (high TDO expressing cells)
Assay: TDO2 cell assay (NFK GreenScreen, SW48 cells)
Type: cell-based
Details: SW48 cells (high TDO expressing), 200 uM tryptophan, 24 hours; Table 3; read-out: TDO2 Cell Fluor EC50

T1 sequence (P48775 whole entry): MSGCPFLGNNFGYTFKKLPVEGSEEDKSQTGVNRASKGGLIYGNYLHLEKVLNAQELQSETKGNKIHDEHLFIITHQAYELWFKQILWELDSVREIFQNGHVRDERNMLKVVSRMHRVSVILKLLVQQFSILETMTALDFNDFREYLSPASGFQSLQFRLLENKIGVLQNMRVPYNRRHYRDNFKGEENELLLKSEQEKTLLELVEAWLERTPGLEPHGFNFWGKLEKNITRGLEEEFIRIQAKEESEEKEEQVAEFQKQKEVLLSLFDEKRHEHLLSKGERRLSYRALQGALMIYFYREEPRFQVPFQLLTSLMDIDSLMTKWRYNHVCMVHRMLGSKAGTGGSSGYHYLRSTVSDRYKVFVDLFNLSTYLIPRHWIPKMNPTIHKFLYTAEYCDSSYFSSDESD

| Structure (SMILES) | EC50 [µM] |
| --- | --- |
| OC1COCCC1C1c2c(Cl)cccc2-c2cncn21 (single isomer, unassigned) [Example 69-1c] | > 25 |
| OC1COCCC1C1c2c(Cl)cccc2-c2cncn21 (single isomer, unassigned) [Example 69-1d] | 4.6 |
| OC1CCOCC1C1c2c(Cl)cccc2-c2cncn21 (single isomer, unassigned) [Example 69a] | > 25 |
| OC1CCOCC1C1c2c(Cl)cccc2-c2cncn21 (single isomer, unassigned) [Example 69b] | > 25 |
| OC1CCOCC1C1c2c(Cl)cccc2-c2cncn21 (single isomer, unassigned) [Example 69c] | 11 |
| OC1CCOCC1C1c2c(Cl)cccc2-c2cncn21 (single isomer, unassigned) [Example 69d] | > 25 |
| O=S(=O)(C1CC1)N1CC[C@@H](O)[C@H]([C@H]2c3ccccc3-c3cncn32)C1 (single isomer, unassigned) [Example 70a] | > 25 |
| O=S(=O)(C1CC1)N1CC[C@@H](O)[C@H]([C@H]2c3ccccc3-c3cncn32)C1 (single isomer, unassigned) [Example 70b] | 1.1 |
| O=S(=O)(C1CC1)N1CC[C@@H](O)[C@H]([C@@H]2c3ccccc3-c3cncn32)C1 (single isomer, unassigned) [Example 70c] | > 25 |
| O=S(=O)(C1CC1)N1CC[C@@H](O)[C@H]([C@@H]2c3ccccc3-c3cncn32)C1 (single isomer, unassigned) [Example 70d] | > 25 |
| OC1c2cnccc2CC1C1c2ccccc2-c2cncn21 (single isomer, unassigned) [Example 71aa] | > 25 |
| OC1c2cnccc2CC1C1c2ccccc2-c2cncn21 (single isomer, unassigned) [Example 71bb] | 0.49 |
| OC1c2cnccc2CC1C1c2ccccc2-c2cncn21 (single isomer, unassigned) [Example 71c] | > 25 |
| OC1c2cnccc2CC1C1c2ccccc2-c2cncn21 (single isomer, unassigned) [Example 71d] | 1.6 |
| OC1c2cnccc2CC1C1c2ccccc2-c2cncn21 (single isomer, unassigned) [Example 71e] | 11 |
| OC1c2cnccc2CC1C1c2ccccc2-c2cncn21 (single isomer, unassigned) [Example 71f] | > 25 |
| OC1CC2(CC2)C1C1c2ccccc2-c2cncn21 (single isomer, unassigned) [Example 72a] | 6.6 |
| OC1CC2(CC2)C1C1c2ccccc2-c2cncn21 (single isomer, unassigned) [Example 72b] | 0.65 |
| OC1CC2(CC2)C1C1c2ccccc2-c2cncn21 (single isomer, unassigned) [Example 72c] | 10 |
| OC1CC2(CC2)C1C1c2ccccc2-c2cncn21 (single isomer, unassigned) [Example 72d] | 9 |
| OC1CC2(CC2)C1C1c2ccccc2-c2cncn21 (single isomer, unassigned) [Example 72e] | 0.052 |
| OC1CC2(CC2)C1C1c2ccccc2-c2cncn21 (single isomer, unassigned) [Example 72f] | 11 |
| OC1CC2(CC2)C1C1c2ccccc2-c2cncn21 (single isomer, unassigned) [Example 72h] | 18 |

| Structure (SMILES) | EC50 [µM] |
| --- | --- |
| OC1CCOCC1C1c2c(F)cccc2-c2cncn21 (single isomer, unassigned) [Example 73a] | 6.4 |
| OC1CCOCC1C1c2c(F)cccc2-c2cncn21 (single isomer, unassigned) [Example 73b] | 2.2 |
| OC1CCOCC1C1c2c(F)cccc2-c2cncn21 (single isomer, unassigned) [Example 73d] | > 25 |
| OC1COCCC1C1c2cc(F)ccc2-c2cncn21 (single isomer, unassigned) [Example 75-1a] | 5.7 |
| OC1COCCC1C1c2cc(F)ccc2-c2cncn21 (single isomer, unassigned) [Example 75-1b] | > 25 |
| OC1COCCC1C1c2cc(F)ccc2-c2cncn21 (single isomer, unassigned) [Example 75-1c] | 0.11 |
| OC1CCOCC1C1c2cc(F)ccc2-c2cncn21 (single isomer, unassigned) [Example 75a] | > 25 |
| OC1CCOCC1C1c2cc(F)ccc2-c2cncn21 (single isomer, unassigned) [Example 75b] | 1.2 |
| OC1CCOCC1C1c2cc(F)ccc2-c2cncn21 (single isomer, unassigned) [Example 75c] | 19 |
| CCS(=O)(=O)N1CCC2(CCC(C3c4ccccc4-c4cncn43)C2O)CC1 (single isomer, unassigned) [Example 76a] | 9.5 |
| CCS(=O)(=O)N1CCC2(CCC(C3c4ccccc4-c4cncn43)C2O)CC1 (single isomer, unassigned) [Example 76b] | 15 |
| CCS(=O)(=O)N1CCC2(CCC(C3c4ccccc4-c4cncn43)C2O)CC1 (single isomer, unassigned) [Example 76c] | 0.071 |
| CCS(=O)(=O)N1CCC2(CCC(C3c4ccccc4-c4cncn43)C2O)CC1 (single isomer, unassigned) [Example 76e] | 0.25 |
| CS(=O)(=O)N1CCC(C2c3ccccc3-c3cncn32)C(O)C1 (single isomer, unassigned) [Example 79a] | 8.1 |
| O=S(=O)(C1CC1)N1CC[C@@H]([C@@H]2c3ccccc3-c3cncn32)[C@H](O)C1 (single isomer, unassigned) [Example 81a] | 5.3 |
| CC1(C)OC(C)(C)C(C2c3ccccc3-c3cncn32)C1O (single isomer, unassigned) [Example 84a] | 14 |
| CC1(C)OC(C)(C)C(C2c3ccccc3-c3cncn32)C1O (single isomer, unassigned) [Example 84c] | 13 |
| CC1(C)OC(C)(C)C(C2c3ccccc3-c3cncn32)C1O (single isomer, unassigned) [Example 84f] | > 25 |
| CC1(C)OCC(C2c3ccccc3-c3cncn32)C1O (single isomer, unassigned) [Example 85b] | 0.13 |
| CC1(C)OCC(C2c3ccccc3-c3cncn32)C1O (single isomer, unassigned) [Example 85f] | > 25 |
| CC1(C)OCC(C2c3ccccc3-c3cncn32)C1O (single isomer, unassigned) [Example 85g] | 0.14 |
| OC1CCCOCC1C1c2ccccc2-c2cncn21 (single isomer, unassigned) [Example 86c] | > 25 |

Other lines, results leading:

| EC50 [µM] | Structure (SMILES) |
| --- | --- |
| 17 | OC1c2cnccc2CC1C1c2ccccc2-c2cncn21 (single isomer, unassigned) [Example 71a] |
| 0.63 | OC1c2cnccc2CC1C1c2ccccc2-c2cncn21 (single isomer, unassigned) [Example 71b] |
| 11 | OC1CC2(CC2)C1C1c2ccccc2-c2cncn21 (single isomer, unassigned) [Example 72g] |
| 0.34 | OC1CCOCC1C1c2c(F)cccc2-c2cncn21 (single isomer, unassigned) [Example 73c] |
| > 25 | OC1COCCC1C1c2cc(F)ccc2-c2cncn21 (single isomer, unassigned) [Example 75-1d] |
| 0.52 | OC1CCOCC1C1c2cc(F)ccc2-c2cncn21 (single isomer, unassigned) [Example 75d] |
| 15 | CCS(=O)(=O)N1CCC2(CCC(C3c4ccccc4-c4cncn43)C2O)CC1 (single isomer, unassigned) [Example 76d] |
| > 25 | O=S(=O)(C1CC1)N1CC[C@@H]([C@H]2c3ccccc3-c3cncn32)[C@H](O)C1 (single isomer, unassigned) [Example 77a] |
| 5.2 | CS(=O)(=O)N1CCC(C2c3ccccc3-c3cncn32)C(O)C1 (single isomer, unassigned) [Example 79b] |
| > 25 | CC(C)S(=O)(=O)N1CC[C@@H]([C@H]2c3ccccc3-c3cncn32)[C@H](O)C1 (single isomer, unassigned) [Example 80a] |
| 0.14 | CC(C)S(=O)(=O)N1CC[C@@H]([C@H]2c3ccccc3-c3cncn32)[C@H](O)C1 (single isomer, unassigned) [Example 80b] |
| > 25 | O=S(=O)(C1CC1)N1CC[C@@H]([C@@H]2c3ccccc3-c3cncn32)[C@H](O)C1 (single isomer, unassigned) [Example 81b] |
| 0.067 | CC1(C)OC(C)(C)C(C2c3ccccc3-c3cncn32)C1O (single isomer, unassigned) [Example 84b] |
| 3.6 | CC1(C)OC(C)(C)C(C2c3ccccc3-c3cncn32)C1O (single isomer, unassigned) [Example 84d] |
| > 25 | CC1(C)OC(C)(C)C(C2c3ccccc3-c3cncn32)C1O (single isomer, unassigned) [Example 84e] |
| 24 | CC1(C)OCC(C2c3ccccc3-c3cncn32)C1O (single isomer, unassigned) [Example 85a] |
| 11 | CC1(C)OCC(C2c3ccccc3-c3cncn32)C1O (single isomer, unassigned) [Example 85c] |
| 0.66 | CC1(C)OCC(C2c3ccccc3-c3cncn32)C1O (single isomer, unassigned) [Example 85d] |
| > 25 | CC1(C)OCC(C2c3ccccc3-c3cncn32)C1O (single isomer, unassigned) [Example 85e] |
| 0.66 | CC1(C)OCC(C2c3ccccc3-c3cncn32)C1O (single isomer, unassigned) [Example 85h] |
| 14 | OC1CCCOCC1C1c2ccccc2-c2cncn21 (single isomer, unassigned) [Example 86a] |
| 0.52 | OC1CCCOCC1C1c2ccccc2-c2cncn21 (single isomer, unassigned) [Example 86b] |
| 0.14 | OC1CCCOCC1C1c2ccccc2-c2cncn21 (single isomer, unassigned) [Example 86d] |
| > 25 | OC1CCCOCC1C1c2ccccc2-c2cncn21 (single isomer, unassigned) [Example 86e] |
| 0.15 | OC1CCCOCC1C1c2ccccc2-c2cncn21 (single isomer, unassigned) [Example 86f] |
